The source of these data is patent publication US8962664B2, “Selective glycosidase inhibitors and uses thereof” (Simon Fraser University, priority 2006, dated 2015).

For data set [1], the target named is O-GlcNAcase (Homo sapiens (Human), UniProt O60502). In words: Assay for determination of KI values for inhibition of O-GlcNAcase activity. The following applies: pNP-GlcNAc 0.5 mM, PBS buffer pH 7.4, 37° C., Dixon plots. In kind it is biochemical. Here is the method: Experimental Procedure for Kinetic Analyses: Enzymatic reactions were carried out in PBS buffer (pH 7.4) using pNP-GlcNAc as a substrate (0.5 mM) and monitored continuously at 37° C. at 400 nm using a Cary 3E UV-VIS spectrophotometer equipped with a Peltier temperature controller. Reactions were pre-heated in a 500 μL quartz cuvette for approximately 5 minutes followed by addition of 10 μL enzyme via syringe (final enzyme concentration 0.002 mg/mL). Reaction velocities were determined by linear regression of the linear region of the reaction progress curve between the first and third minutes. An inhibitor concentration range of ⅕ to 5 times K1 was used in each case.
Chain of O-GlcNAcase (O60502 whole entry): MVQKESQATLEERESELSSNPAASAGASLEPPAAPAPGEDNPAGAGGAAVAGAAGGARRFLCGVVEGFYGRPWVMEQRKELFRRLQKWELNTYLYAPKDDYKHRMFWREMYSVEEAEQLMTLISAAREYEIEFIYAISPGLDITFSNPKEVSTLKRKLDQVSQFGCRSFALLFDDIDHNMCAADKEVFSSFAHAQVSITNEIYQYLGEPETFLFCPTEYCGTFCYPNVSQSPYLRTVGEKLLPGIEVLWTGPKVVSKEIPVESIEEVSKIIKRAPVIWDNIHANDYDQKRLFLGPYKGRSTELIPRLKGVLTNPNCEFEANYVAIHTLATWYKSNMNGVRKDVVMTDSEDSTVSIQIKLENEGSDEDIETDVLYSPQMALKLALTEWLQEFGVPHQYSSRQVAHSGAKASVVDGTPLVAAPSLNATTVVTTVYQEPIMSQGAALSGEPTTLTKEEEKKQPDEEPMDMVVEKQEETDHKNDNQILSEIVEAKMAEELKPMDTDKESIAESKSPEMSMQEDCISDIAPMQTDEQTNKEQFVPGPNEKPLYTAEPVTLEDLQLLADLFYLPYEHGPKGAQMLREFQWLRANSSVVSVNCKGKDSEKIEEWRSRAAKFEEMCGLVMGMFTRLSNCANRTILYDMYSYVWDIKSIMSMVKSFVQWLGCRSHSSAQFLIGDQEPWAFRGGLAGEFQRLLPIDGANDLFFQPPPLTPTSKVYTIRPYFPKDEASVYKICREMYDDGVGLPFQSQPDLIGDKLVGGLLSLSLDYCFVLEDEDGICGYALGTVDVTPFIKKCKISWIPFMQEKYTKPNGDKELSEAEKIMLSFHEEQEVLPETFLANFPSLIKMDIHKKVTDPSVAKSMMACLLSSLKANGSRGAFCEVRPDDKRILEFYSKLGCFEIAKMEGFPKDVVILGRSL
For example, the K1 values for inhibition of O-GlcNAcase shown in Table 4 were obtained for compounds 2, 4, and 6. All K1 values were determined using linear regression of a Dixon plots.

Data set [2] can be described thus: Stability on storage neat. The data set is classed as physicochemical. The following applies: stored neat at 0° C. (7 d). The method, then: The azide obtained as described above (200 mg, 0.81 mmol) was dissolved in 3:1 THF:H2O (5 mL) and triphenylphosphine (310 mg, 1.2 mmol) was added. The solution was then stirred overnight at room temperature. Concentration of the mixture followed by flash chromatography of the resultant residue on silica gel (MeOH:EtOAc 2:3) gave 130 mg (75% yield) of (3aR,5R,6S,7R,7aR)-5-(aminomethyl)-2-propyl-5,6,7,7a-tetrahydro-3aH-pyrano[3,2-d]thiazole-6,7-diol (51) as a colourless oil. […] (7 d). ^1H NMR (500 MHz, methanol-d4): δ 0.97 (t, 3H, J=7.4 Hz), 1.63-1.67 (m, 2H), 2.43-2.49 (m, 2H), 3.39 (ddd, 1H, J=2.5, 4.1, 9.0 Hz), 3.51 (dd, 1H, J=4.1, 9.5 Hz), 3.64 (dd, 1H, J=2.5, 12.5 Hz), 3.75 (dd, 1H, J=6.1, 12.5 Hz), 4.04 (dd, 1H, J=4.4, 4.5 Hz), 4.28 (m, 1H), 6.35 (d, 1H, J=7.0 Hz).

As a reminder, the Ki is the dissociation constant of the complex between target and ligand, obtained from inhibition or displacement. Read a low Ki as higher affinity.

In turn, `OC[C@H]1O[C@@H]2SC(CF)=N[C@@H]2[C@@H](O)[C@@H]1O` [Compound 2, (3aR,5R,6S,7R,7aR)-2-(fluoromethyl)-5-(hydroxymethyl)-5,6,7,7a-tetrahydro-3aH-pyrano[3,2-d]thiazole-6,7-diol] gave an inhibitory constant (Ki) in data set [1] of 10 µM.
The same measure, in the same setting: in the case of `OC[C@H]1O[C@@H]2SC(C(F)F)=N[C@@H]2[C@@H](O)[C@@H]1O` [Compound 4, (3aR,5R,6S,7R,7aR)-2-(difluoromethyl)-5-(hydroxymethyl)-5,6,7,7a-tetrahydro-3aH-pyrano[3,2-d]thiazole-6,7-diol] it was 7.7 µM; in that of `OC[C@H]1O[C@@H]2SC(C(F)(F)F)=N[C@@H]2[C@@H](O)[C@@H]1O` [Compound 6, (3aR,5R,6S,7R,7aR)-5-(hydroxymethyl)-2-(trifluoromethyl)-5,6,7,7a-tetrahydro-3aH-pyrano[3,2-d]thiazole-6,7-diol], 5.6 µM.
For `CCCC1=N[C@@H]2[C@@H](O)[C@H](O)[C@@H](CN)O[C@@H]2S1` [Compound 51, (3aR,5R,6S,7R,7aR)-5-(aminomethyl)-2-propyl-5,6,7,7a-tetrahydro-3aH-pyrano[3,2-d]thiazole-6,7-diol], in data set [2], the stability on storage result is recorded as “decompose slowly with time”.
